Test system: Caco-2 cells
Assay: apoA-I mediated 3H-cholesterol efflux from Caco-2 cells
Type: cell-based, human
Conditions: 24 h, 10 μg/ml apoA-I, mean and SEM of quadruplicate
Description: To assess the relevant biological activity of the LXR agonists, certain compounds were tested for their ability to increase cholesterol efflux from cultured human cells, as described by Sparrow et al., JBC volume 277, pages 10021–10027, Mar. 22, 2002. Caco-2 cells, which are of human origin, were obtained from ATCC and grown in Opti-MEM (Gibco #51985-034) containing 10% FCS, non-essential amino acids (Gibco #11140-050), and vitamins (Gibco # 11120-052). Caco-2 cells were plated at 100,000 cells/well in 48-well plates. After four days the cells had reached confluence, and were then labeled with ^3H-cholesterol by incubation for 24 hours in fresh growth media containing ^3H-cholesterol (10 μCi/ml). Following labeling with ^3H-cholesterol, cells were washed and incubated an additional 24 hours in serum-free media containing 1 mg/ml BSA, to allow for equilibration of ^3H-cholesterol with intracellular cholesterol. Cholesterol efflux was initiated by adding 10 μg/ml apoA-I, with or without compound, in serum-free medium. Compounds were added to cell culture medium from DMSO solutions, and control cells received an equivalent amount of DMSO, never exceeding 0.1%. After 24 hours, media were harvested and cells dissolved in 0.1 M NaOH. Media were briefly centrifuged to remove non-adherent cells, and then aliquots of both the supernatants and the dissolved cells were subjected to liquid scintillation spectrometry to determine radioactivity. Cholesterol efflux is expressed as a percentage, calculated as (^3H-cholesterol in medium/(^3H-cholesterol in medium+^3H-cholesterol in cells))×100.

Row | Structure (SMILES) | % cholesterol efflux (compound concentration 1 nM) [%] | % cholesterol efflux (compound concentration 10 nM) [%] | % cholesterol efflux (compound concentration 100 nM) [%] | % cholesterol efflux (compound concentration 1000 nM) [%] | % cholesterol efflux (compound concentration 5000 nM) [%]
1 | CCCc1c(OCCCN2C(=O)NC(C)(c3ccccc3)C2=O)ccc2c(C(F)(F)F)noc12 (racemic) [Example 25, rac-5-methyl-5-phenyl-3-(3-{[7-propyl-3-(trifluoromethyl)-1,2-benzisoxazol-6-yl]oxy}propyl)imidazolidine-2,4-dione] | 3.4 ± 0.3 | 3.5 ± 0.09 | 4.5 ± 0.09 | 4.6 ± 0.09 | 5.2 ± 0.2
2 | CCCc1c(OCCCN2C(=O)CSC2=O)ccc2c(C(F)(F)F)noc12 [Example 16, 3-(3-{[7-propyl-3-(trifluoromethyl)-1,2-benzisoxazol-6-yl]oxy}propyl)thiazolidine-2,4-dione] | 3.2 ± 0.3 | 4.0 ± 0.2 | 8.8 ± 0.7 | 10.3 ± 0.3 | 6.6 ± 0.4

— US7125865B2, “Therapeutic compounds for treating dyslipidemic conditions” (Merck & Co., Inc., priority 2002, dated 2006)
